# Assay results as given in patent US20180028478A1, “ANTIVIRAL COMPOSITIONS DIRECTED AGAINST THE NUCLEOPROTEIN OF INFLUENZA VIRUSES” (priority 2011, published 2018).
# Legend:
# [1] = molecular target: NP R152A (Influenza A virus, UniProt P15682, R152A); type: binding, type-A Influenza virus
# [2] = molecular target: NP WT (Influenza A virus, UniProt P15682, A237T/A472T/G34D/M105R/P283S); type: binding, type-A Influenza virus (H1N1 A/WSN/1933)
# [3] = molecular target: NP Y148A (Influenza A virus, UniProt P15682, Y148A)
# [4] = molecular target: T1, NP R361A (Influenza A virus, UniProt P15682, R361A)
# [5] = molecular target: T1, NP R361A; remark: listed apart in the source
# [6] = molecular target: nucleoprotein of SEQ ID NO: 2 (Influenza A virus, UniProt P15682, A237T/A472T/G34D/M105R/P283S)
# [7] = molecular target: NP R416A mutant (Influenza A virus, UniProt P15682, R416A)
# [8] = molecular target: NP (Influenza A virus, UniProt P15682, A237T/A472T/G34D/M105R/P283S)
SMILES,effect of R152A mutation on affinity [1],competition with the association of RNA to NP (signal of NP-RNA complex) [2],competition with the RNA [3],direct attachment to surface-bound protein [4],competition with the RNA / attachment [5],beacon fluorescence in the presence of compound [6],attachment to R416A mutant [7],direct attachment to surface-bound protein [8]
COc1ccc2cc(C(CC(=O)O)CC(=O)O)ccc2c1 [Naproxen A],reduces the affinity,biphasic effect,–,–,–,–,–,–
COc1ccc2cc(-c3c(C(=O)O)cccc3C(=O)O)ccc2c1 [Naproxen c0],reduces the affinity,–,–,–,–,–,–,–
COc1ccc2cc(C(C)C(=O)O)ccc2c1 (centres unmarked) [Naproxen],no effect,signal decrease,does not compete with the RNA any longer,but not to R361A,does not compete with the RNA any longer,fluorescence decreases,does not fix,direct attachment
